For the first assay, the target named is T1, IL-17A/A (Homo sapiens, UniProt Q16552).
T1 construct: purchased Genscript Z03228
T1 sequence (Q16552 24-155): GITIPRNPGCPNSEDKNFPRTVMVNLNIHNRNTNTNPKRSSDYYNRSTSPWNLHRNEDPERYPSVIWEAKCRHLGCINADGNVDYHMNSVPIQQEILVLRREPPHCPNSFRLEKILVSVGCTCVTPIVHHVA
In words: IL-17A/A HEK-Blue Cell Assay. The class given is cell-based. To be noted: HEK-Blue IL-17A reporter cell line, SEAP readout at A630, 20 hours incubation with IL-17A/A; top concentration 10 uM, 1 uM or 0.3 uM.
For `CCC(=O)N[C@H](Cc1ccc(NC(=O)[C@@H](NC(=O)c2ccnn2CC)C2CCCCC2)c(F)c1)C(=O)N1C[C@@H]2C[C@H]1CN2C` [Compound 696], the “IL-17A/A inhibition (pIC50)” value was “X2a (compounds were evaluated up to 1 uM and did not inhibit activity by >80%, however they showed some activity at 1 uM (less than 80% and more than 20%))”.
Turning to `CCC(=O)N[C@H](Cc1ccc(NC(=O)[C@@H](NC(=O)c2ccnn2CC)C2CCCCC2)c(F)c1)C(=O)N1CCN2CCCC[C@@H]2C1` [Compound 697], the “IL-17A/A inhibition (pIC50)” value is “X2a (compounds were evaluated up to 1 uM and did not inhibit activity by >80%, however they showed some activity at 1 uM (less than 80% and more than 20%))”.
Still for that read-out and setting: as for `CCC(=O)N[C@H](Cc1ccc(NC(=O)[C@@H](NC(=O)c2ccnn2CC)c2cccc3ccccc23)c(F)c1)C(=O)N1CCN(C)CC1` [Compound 698], the entry is “X2b (compounds were evaluated up to 1 uM and inhibited activity at 1 uM by less than 20%)”; as for `CCC(=O)N[C@H](Cc1ccc(NC(=O)[C@@H](NC(=O)c2cnc(C(=O)NC)s2)C2CCCCC2)c(F)c1)C(=O)N1CCN(C)CC1` [Compound 699], “X2b (compounds were evaluated up to 1 uM and inhibited activity at 1 uM by less than 20%)”.
`CCn1nccc1C(=O)N[C@H](C(=O)Nc1ccc(C[C@@H](Nc2nc(N)nc(C(F)(F)F)n2)C(=O)N2CCN(C)CC2)cc1F)C1CCCCC1` [Compound 700]: the “IL-17A/A inhibition (pIC50)” value is “X2a (compounds were evaluated up to 1 uM and did not inhibit activity by >80%, however they showed some activity at 1 uM (less than 80% and more than 20%))”.
Regarding `CCn1nccc1C(=O)N[C@H](C(=O)Nc1ccc(C[C@@H](Nc2ncc(C#N)c(OC)n2)C(=O)N2CCN(C)CC2)cc1F)C1CCCCC1` [Compound 701], the “IL-17A/A inhibition (pIC50)” value was “X2a (compounds were evaluated up to 1 uM and did not inhibit activity by >80%, however they showed some activity at 1 uM (less than 80% and more than 20%))”.
Regarding `CCn1nccc1C(=O)N[C@H](C(=O)Nc1ccc(C[C@@H](NC(=O)c2cn(C)cn2)C(=O)N2CCN(C)CC2)cc1F)C1CCCCC1` [Compound 702], the “IL-17A/A inhibition (pIC50)” value was “X2b (compounds were evaluated up to 1 uM and inhibited activity at 1 uM by less than 20%)”.
Regarding `CCC(=O)N[C@H](Cc1ccc(NC(=O)[C@@H](NC(=O)c2cnn3c2CCC3)C2CCCCC2)c(F)c1)C(=O)N1CCN(C)CC1` [Compound 703], the “IL-17A/A inhibition (pIC50)” value was “X2a (compounds were evaluated up to 1 uM and did not inhibit activity by >80%, however they showed some activity at 1 uM (less than 80% and more than 20%))”.
In the case of `CCC(=O)N[C@H](Cc1ccc(NC(=O)[C@@H](NC(=O)c2ccnn2CCO)C2CCCCC2)c(F)c1)C(=O)N1CCN(C)CC1` [Compound 704], the “IL-17A/A inhibition (pIC50)” value is “X2a (compounds were evaluated up to 1 uM and did not inhibit activity by >80%, however they showed some activity at 1 uM (less than 80% and more than 20%))”.
On to `CCC(=O)N[C@H](Cc1ccc(NC(=O)[C@@H](NC(=O)c2noc3c2CNCC3)C2CCCCC2)c(F)c1)C(=O)N1CCN(C)CC1` [Compound 705], for which the “IL-17A/A inhibition (pIC50)” value was “X2b (compounds were evaluated up to 1 uM and inhibited activity at 1 uM by less than 20%)”.
Take `CCC(=O)N[C@H](Cc1ccc(NC(=O)[C@@H](NC(=O)c2nn(C)c3c2CNCC3)C2CCCCC2)c(F)c1)C(=O)N1CCN(C)CC1` [Compound 706]: the “IL-17A/A inhibition (pIC50)” value is “X2b (compounds were evaluated up to 1 uM and inhibited activity at 1 uM by less than 20%)”.
For the compound `CCC(=O)N[C@H](Cc1ccc(NC(=O)[C@@H](NC(=O)c2coc3c2C(=O)NCC3)C2CCCCC2)c(F)c1)C(=O)N1CCN(C)CC1` [Compound 708], the “IL-17A/A inhibition (pIC50)” value is “X2b (compounds were evaluated up to 1 uM and inhibited activity at 1 uM by less than 20%)”.
For `CCC(=O)N[C@H](Cc1ccc(NC(=O)[C@@H](NC(=O)C(C)(C)c2ccccc2)C2CCCCC2)c(F)c1)C(=O)N1CCN(C)CC1` [Compound 709], the “IL-17A/A inhibition (pIC50)” value was “X2b (compounds were evaluated up to 1 uM and inhibited activity at 1 uM by less than 20%)”.
Turning to `CCC(=O)N[C@H](Cc1ccc(NC(=O)[C@@H](NC(=O)C2(c3ccccc3)CC2)C2CCCCC2)c(F)c1)C(=O)N1CCN(C)CC1` [Compound 710], the “IL-17A/A inhibition (pIC50)” value was “X2b (compounds were evaluated up to 1 uM and inhibited activity at 1 uM by less than 20%)”.
For the compound `CCC(=O)N[C@H](Cc1ccc(NC(=O)[C@@H](NC(=O)Cc2ccc(OC)nc2)C2CCCCC2)c(F)c1)C(=O)N1CCN(C)CC1` [Compound 711], the “IL-17A/A inhibition (pIC50)” value is “X2a (compounds were evaluated up to 1 uM and did not inhibit activity by >80%, however they showed some activity at 1 uM (less than 80% and more than 20%))”.
As to `CCC(=O)N[C@H](Cc1ccc(NC(=O)[C@@H](NC(=O)C(F)(F)c2ccncc2)C2CCCCC2)c(F)c1)C(=O)N1CCN(C)CC1` [Compound 712], the “IL-17A/A inhibition (pIC50)” value was “X2a (compounds were evaluated up to 1 uM and did not inhibit activity by >80%, however they showed some activity at 1 uM (less than 80% and more than 20%))”.
With `CCC(=O)N[C@H](Cc1ccc(NC(=O)[C@@H](NC(=O)C(F)(F)c2ccc(=O)n(C)c2)C2CCCCC2)c(F)c1)C(=O)N1CCN(C)CC1` [Compound 713], the “IL-17A/A inhibition (pIC50)” value was “X2b (compounds were evaluated up to 1 uM and inhibited activity at 1 uM by less than 20%)”.
For the compound `CCC(=O)N[C@H](Cc1ccc(NC(=O)[C@@H](NC(=O)C(F)(F)C2(O)CCCC2)C2CCCCC2)c(F)c1)C(=O)N1CCN(C)CC1` [Compound 715], the “IL-17A/A inhibition (pIC50)” value is “X2b (compounds were evaluated up to 1 uM and inhibited activity at 1 uM by less than 20%)”.
As to `CCC(=O)N[C@H](Cc1ccc(NC(=O)[C@@H](NC(=O)c2cnc(CNS(C)(=O)=O)n2C)C2CCCCC2)c(F)c1)C(=O)N1CCN(C)CC1` [Compound 716], the “IL-17A/A inhibition (pIC50)” value was “X2b (compounds were evaluated up to 1 uM and inhibited activity at 1 uM by less than 20%)”.
As for `CCC(=O)N[C@H](Cc1ccc(NC(=O)[C@@H](NC(=O)c2cnc(CNC(C)=O)n2C)C2CCCCC2)c(F)c1)C(=O)N1CCN(C)CC1` [Compound 717], the “IL-17A/A inhibition (pIC50)” value is “X2b (compounds were evaluated up to 1 uM and inhibited activity at 1 uM by less than 20%)”.
`CCC(=O)N[C@H](Cc1ccc(NC(=O)[C@@H](NC(=O)c2ccc(S(=O)(=O)NC)s2)C2CCCCC2)c(F)c1)C(=O)N1CCN(C)CC1` [Compound 718]: the “IL-17A/A inhibition (pIC50)” value is “X2a (compounds were evaluated up to 1 uM and did not inhibit activity by >80%, however they showed some activity at 1 uM (less than 80% and more than 20%))”.
Regarding `CCC(=O)N[C@H](Cc1ccc(NC(=O)[C@H](Cc2ccc(Cl)cc2)NC(=O)c2ccnn2CC)c(F)c1)C(=O)N1CCN(C)CC1` [Compound 722], the “IL-17A/A inhibition (pIC50)” value is “X2b (compounds were evaluated up to 1 uM and inhibited activity at 1 uM by less than 20%)”.
For the compound `CCC(=O)N[C@H](Cc1ccc(NC(=O)[C@H](Cc2ccc(C(F)(F)F)cc2)NC(=O)c2ccnn2CC)c(F)c1)C(=O)N1CCN(C)CC1` [Compound 723], the “IL-17A/A inhibition (pIC50)” value was “X2b (compounds were evaluated up to 1 uM and inhibited activity at 1 uM by less than 20%)”.

Staying with this assay, now noted: HEK-Blue IL-17A reporter cell line, SEAP readout at A630, 20 hours incubation with IL-17A/A; top concentration 10 uM, 1 uM or 0.3 uM; read-out: IL-17A/A inhibition (pIC50) (converted).
On to `CCn1nccc1C(=O)N[C@H](C(=O)Nc1ccc([C@H](C)[C@@H](NC(=O)c2cscn2)C(=O)N2CCN(C)CC2)cc1F)C1CCCCC1` [Compound 682], for which the IC50 was 0.1 to 10 µM.
Consider `CCn1nccc1C(=O)N[C@H](C(=O)Nc1ccc([C@H](C)[C@@H](NC(=O)c2coc(C)n2)C(=O)N2CCN(C)CC2)cc1F)C1CCCCC1` [Compound 683], for which the IC50 is 0.1 to 10 µM.
As for `CCC(=O)N[C@@H](C(=O)N1CCN(C)CC1)[C@@H](C)c1ccc(NC(=O)[C@@H](NC(=O)C(F)(F)c2cccc(C)c2)C2CCCCC2)c(F)c1` [Compound 684], the IC50 is 0.1 to 10 µM.
Consider `CCn1nccc1C(=O)N[C@H](C(=O)Nc1ccc([C@H](C)[C@@H](NC(=O)c2ccsn2)C(=O)N2CCN(C)CC2)cc1F)C1CCCCC1` [Compound 685], for which the IC50 was 0.1 to 10 µM.
Same read-out and setting: as for `CCC(=O)N[C@H](Cc1ccc(NC(=O)[C@@H](NC(=O)c2ccnn2CC)C2CCCCC2)c(F)c1)C(=O)N1CCN(C)C[C@@H]1C` [Compound 686], the figure is 0.1 to 10 µM; as for `CCn1nccc1C(=O)N[C@H](C(=O)Nc1ccc([C@H](C)[C@@H](NC(=O)c2cc(C)on2)C(=O)N2CCN(C)CC2)cc1F)C1CCCCC1` [Compound 687], 0.1 to 10 µM.
Regarding `CCC(=O)N[C@H](Cc1ccc(NC(=O)[C@@H](NC(=O)c2cnn3c2SCC3)C2CCCCC2)c(F)c1)C(=O)N1CCN(C)CC1` [Compound 688], the IC50 was 0.1 to 10 µM.
For `CCC(=O)N[C@H](Cc1ccc(NC(=O)[C@@H](NC(=O)c2ccnn2CC)C2CCC(F)(F)CC2)c(F)c1)C(=O)N1CCN(C)CC1` [Compound 689], the IC50 is 0.1 to 10 µM.
Take `CCC(=O)N[C@H](Cc1ccc(NC(=O)[C@@H](NC(=O)c2ccnn2CC)C2CCCCC2)c(F)c1)C(=O)N1CCNC2(CC2)C1` [Compound 690]: the IC50 is 0.1 to 10 µM.
Consider `CCC(=O)N[C@H](Cc1ccc(NC(=O)[C@@H](NC(=O)c2ccnn2CC)C2CCCCC2)cc1Cl)C(=O)N1CCN(C)CC1` [Compound 691], for which the IC50 is 0.1 to 10 µM.
On the same count and under the same terms, to `CCC(=O)N[C@H](Cc1ccc(NC(=O)[C@@H](NC(=O)c2conc2CC)C2CCC(F)(F)CC2)c(F)c1)C(=O)N1CCN(C)CC1` [Compound 692] belongs 0.1 to 10 µM.
Take `CCC(=O)NC(Cc1ccc(NC(=O)[C@@H](NC(=O)c2ccnn2CC)C2CCCCC2)c(F)c1)C(=O)N1CCN2CCOCC2C1` (stereo partly shown) [Compound 693]: the IC50 was 0.1 to 10 µM.
For the compound `CCC(=O)N[C@H](Cc1ccc(NC(=O)[C@@H](NC(=O)c2ccnn2CC)C2CCCCC2)c(F)c1)C(=O)Nc1cccnc1` [Compound 694], the IC50 is 0.1 to 10 µM.
On the same count and under the same terms, to `CCn1nccc1C(=O)N[C@H](C(=O)Nc1ccc([C@H](C)[C@@H](NC(=O)c2csc(N)n2)C(=O)N2CCN(C)CC2)cc1F)C1CCCCC1` [Compound 695] belongs 0.1 to 10 µM.

The values above are taken from US12421212B2, “Substituted benzenecarboxamides as IL-17A modulators” (DiCE Alpha, Inc., priority 2019, dated 2025).
